The nature of data set [1]: Antiinflammatory activity in mouse RAW264.7 cells assessed as inhibition of LPS-induced nitric oxide production after 24 hrs in presence of LPS by Griess assay. The format is functional, cell-based. To be noted: RAW264.7, 24 h. A general note: Nitrite, measured by Griess reagent, commonly stands in for NO production.
Data set [2] is described as follows: Cytotoxicity against mouse RAW264.7 cells assessed as cell survival rate at 200 uM after 24 hrs in presence of LPS by MTT assay. Format: toxicity. The settings on record: read-out: Survival. A general note: Tetrazolium dyes change colour on reduction, which living cells bring about.
Data set [3] in a line: Cytotoxicity against mouse RAW264.7 cells assessed as cell survival rate at 200 uM after 24 hrs in absence of LPS by MTT assay. The format is toxicity. The settings on record: read-out: Survival.

Usually IC50 stands for the concentration needed to halve the response being measured.

`COc1ccc([C@@H]2CCc3ccc(O)cc3O2)cc1O[C@@H]1O[C@H](CO)[C@@H](O)[C@H](O)[C@H]1O`: the IC50 in data set [1] was 16.1 µM. In addition, the viability at 24 h, 200 µM in data set [2] was found to be 114%; in data set [3], 123%.

Take `COc1ccc2c(c1)O[C@H](c1ccccc1)[C@H](O)C2`: the IC50 in data set [1] worked out at 17.3 µM. Also, the viability at 24 h, 200 µM amounted to 104% in data set [2] and 119% in data set [3].

In the case of `COc1ccc([C@@H]2CCc3ccc(O[C@@H]4O[C@H](CO)[C@@H](O)[C@H](O)[C@H]4O)cc3O2)cc1O`, the IC50 in data set [1] was found to be 21.5 µM. Further, the values for the viability at 24 h, 200 µM in data set [2] and in data set [3] were 116% and 104%, respectively.

For the compound `C[C@@H]1C[C@H]2[C@@H]3CCC4=CC(=O)C=C[C@]4(C)[C@@]3(F)[C@@H](O)C[C@]2(C)[C@@]1(O)C(=O)CO` [DEXAMETHASONE], the IC50 in data set [1] was 0.63 µM. The viability at 24 h, 200 µM in data set [2] amounted to 100%; in data set [3], 91%.

The values above are taken from ChEMBL document CHEMBL3868605, “Flavans with potential anti-inflammatory activities from Zephyranthes candida” (Bioorg Med Chem Lett, 2016).
